{
  "source": "ChEMBL document CHEMBL4385649",
  "about": "“Cyclic heptapeptides from the soil-derived fungus Clonostachys rosea” (Bioorg Med Chem, 2019)",
  "type_in_all_cases": "functional, cell-based",
  "key": {"[1]": {"test_system": "L5178Y", "experiment": "Cytotoxicity against mouse L5178Y cells assessed as reduction in cell viability at 10 uM by MTT assay"}, "[2]": {"test_system": "A2780", "experiment": "Cytotoxicity against human A2780 cells assessed as reduction in cell viability at 10 uM by MTT assay"}, "[3]": {"test_system": "L5178Y", "experiment": "Cytotoxicity against mouse L5178Y cells assessed as reduction in cell viability by MTT assay"}, "[4]": {"test_system": "A2780", "experiment": "Cytotoxicity against human A2780 cells assessed as reduction in cell viability by MTT assay"}},
  "note": "The source made the active and inactive calls. The rule behind the calls is not given here.",
  "data": [
    {"smiles": "O=C1OC(O)C=C1O", "note": "(stereo not given)", "values": [
      {"measurement": "Activity", "setting": "[1]", "value": "inactive"},
      {"measurement": "Activity", "setting": "[2]", "value": "inactive"}
    ]},
    {"smiles": "CC[C@H](C)[C@H]1NC(=O)[C@@H](CC(C)C)NC(=O)CNC(=O)CCNC(=O)[C@@H](Cc2c[nH]c3ccccc23)NC(=O)[C@H](C(C)C)NC(=O)[C@H](C(C)C)NC1=O", "values": [
      {"measurement": "IC50", "setting": "[3]", "value": 4.1, "unit": "µM"}
    ]},
    {"smiles": "CC[C@H](C)[C@H]1NC(=O)[C@@H](CC(C)C)NC(=O)CNC(=O)CCNC(=O)[C@@H](Cc2c[nH]c3ccccc23)NC(=O)[C@H](C(C)C)NC(=O)[C@@H]([C@@H](C)CC)NC1=O", "values": [
      {"measurement": "Activity", "setting": "[1]", "value": "inactive"},
      {"measurement": "Activity", "setting": "[2]", "value": "inactive"}
    ]},
    {"smiles": "CS[C@@]1(Cc2c[nH]c3ccccc23)NC(=O)[C@@](SC)(C(C)O)NC1=O", "note": "(stereo not given in full)", "values": [
      {"measurement": "Activity", "setting": "[1]", "value": "inactive"},
      {"measurement": "Activity", "setting": "[2]", "value": "inactive"}
    ]},
    {"smiles": "C[C@@H](O)[C@@]12SS[C@]3(C(=O)N1C)[C@@H](O)C1(C45c6ccccc6N[C@@H]4N4C(=O)[C@]6([C@@H](C)O)SS[C@]4(C(=O)N6C)[C@H]5O)c4ccccc4N[C@@H]1N3C2=O", "note": "(stereo not given in full)", "values": [
      {"measurement": "IC50", "setting": "[4]", "value": 3.5, "unit": "µM"},
      {"measurement": "IC50", "setting": "[3]", "value": 0.1, "unit": "µM"}
    ]},
    {"smiles": "C/C=C/C=C\\[C@@H](O)[C@H]1CCC(=O)O1", "values": [
      {"measurement": "Activity", "setting": "[1]", "value": "inactive"},
      {"measurement": "Activity", "setting": "[2]", "value": "inactive"}
    ]},
    {"smiles": "CC(C)C[C@H]1NC(=O)CNC(=O)CCNC(=O)[C@@H](Cc2c[nH]c3ccccc23)NC(=O)[C@H](C(C)C)NC(=O)[C@H](C(C)C)NC(=O)[C@H](C(C)C)NC1=O", "values": [
      {"measurement": "Activity", "setting": "[1]", "value": "inactive"},
      {"measurement": "Activity", "setting": "[2]", "value": "inactive"}
    ]},
    {"smiles": "CCC/C=C/CCC(=O)[C@]1(O)C(=O)N[C@@H](C)[C@@H]1O", "values": [
      {"measurement": "Activity", "setting": "[1]", "value": "inactive"},
      {"measurement": "Activity", "setting": "[2]", "value": "inactive"}
    ]}
  ]
}
